Experiments:
[1] = test system: CV-1P (African monkey green kidney fibroblasts cells); test: In vitro transfection of plasmid DNA, β-galactosidase activity per well; format: cell-based; conditions: CVI-P; for transfection, result in words: entry spans the charge ratios 8-0.5
Method in brief: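 CV-1P cells (20 000/well) given compound/DNA complexes at various charge ratios, prepared in 50 mM MES–50 mM HEPES–75 mM NaCl pH 7.2, 0.6 μg DNA/well, for 5 h at 37 °C, then 45 h in growth medium. Lysates assayed for β-galactosidase via oNPG hydrolysis at 405 nm against an E. coli enzyme standard; efficiency expressed as percent of Lipofectin.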

[2] = test system: D407 (human retinal pigment epithelial) cells; test: as above; format: cell-based; conditions: D 407
Protocol: Transfer of plasmid DNA by various compounds was investigated by using CV-1P (African monkey green kidney fibroblasts cells) and D407 (human retinal pigment epithelial) cells.
The cells were cultured in Dulbecco's modified Eagle's medium (DMEM, Gibco), supplemented with 10% fetal bovine serum (FBS), penicillin/streptomycin (100 units/ml and 100 μg/ml respectively) and 2 mM L-glutamine for D 407 cell line. Cell cultures were maintained at 37° C. in a 7% CO2/air incubator. The cells were collected, counted and seeded in growth medium (100 μl) into 96-well culture plate, 20 000 cells per well. One day later the medium was replaced with fresh medium without serum (150 μl)
The complexes at different derivative/DNA charge ratios for transfection procedure were prepared just before use in 50 mM MES—50 mM HEPES—75 mM NaCl buffer, pH 7.2 in separate 96 well plates. One hour after changing the serum-free medium with 10% serum the complexes were added to the cells at 370C. Dose of DNA per well was 0.6 μg. After 5 h the complexes were removed, the cells were washed with PBS, and the normal growth medium was added. After 45 h of incubation at 37° C. the cells were lysed with 2% Triton X 100, twice deep frozen and the β-galactosidase activity in each well was determined spectrofotometrically with ELx800 automated microplate reader (Bio-Tex Instruments Inc., Winooski, Vt. USA) by monitoring the hydrolysis of o-nitrophenylgalactopyranoside (oNPG) at 405 nm. Purified β-galactosidase from E.coli was used to construct a standard curve and to calculate 9-galactosidase activity in the transfected cells. […] Transfection efficiencies are given as percentage in comparison to transfection efficiency of Lipofectin^R.

D 407 cells = test: Cytotoxicity of amphiphile/DNA complexes, percentage of survived cells; format: cell-based, human; parameters: concentration or dose not given beside the values
plasmid DNA = test: DNA condensation/complexation, EtBr displacement assay; format: binding
Method in brief: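 Plasmid DNA (0.6 μg/well) was mixed with 0.002% EtBr in 20 mM HEPES–150 mM NaCl pH 7.4, then cationic liposomes were added at various +/− charge ratios.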

CVI-P cells = test: Cytotoxicity of amphiphile/DNA complexes, percentage of survived cells
[3] = amphiphile/DNA +/− charge ratio 0.5
[4] = amphiphile/DNA +/− charge ratio 1
[5] = amphiphile/DNA +/− charge ratio 2
[6] = amphiphile/DNA +/− charge ratio 4
[7] = amphiphile/DNA +/− charge ratio 8

SMILES	transfection efficiency [1, 3]	transfection efficiency [1, 4]	transfection efficiency [1, 5]	transfection efficiency [1, 6]	transfection efficiency [1, 7]	transfection efficiency [2, 4]	transfection efficiency [2, 5]	transfection efficiency [2, 6]	transfection efficiency [2, 7]	complexation, percentage of the maximum fluorescence signal when EtBr bound to DNA in the absence of an amphiphile (plasmid DNA; [3])	complexation, percentage of the maximum fluorescence signal when EtBr bound to DNA in the absence of an amphiphile (plasmid DNA; [4])	complexation, percentage of the maximum fluorescence signal when EtBr bound to DNA in the absence of an amphiphile (plasmid DNA; [5])	complexation, percentage of the maximum fluorescence signal when EtBr bound to DNA in the absence of an amphiphile (plasmid DNA; [6])	complexation, percentage of the maximum fluorescence signal when EtBr bound to DNA in the absence of an amphiphile (plasmid DNA; [7])	melting point	cytotoxicity as a percentage of survived cells (CVI-P cells; [3])	cytotoxicity as a percentage of survived cells (CVI-P cells; [4])	cytotoxicity as a percentage of survived cells (CVI-P cells; [5])	cytotoxicity as a percentage of survived cells (CVI-P cells; [6])	cytotoxicity as a percentage of survived cells (CVI-P cells; [7])	other results
CCCCCCCCCCCCCCCC(=O)OCCOC(=O)C1=C(C)NC(C)=C(C(=O)OCCOC(=O)CCCCCCCCCCCCCCC)C1c1ccc[n+](C)c1.I.[I-] [I, 1′,4′-Dihydro-1,2′,6′-trimethyl-3′,5′-bis[(2-palmitoyloxyethoxy)carbonyl]-3,4′-bipyridinium iodide]	0,26 β-galactosidase units per well	7,72 β-galactosidase units per well	2,89 β-galactosidase units per well	0,73 β-galactosidase units per well	0,78 β-galactosidase units per well	20,04 β-galactosidase units per well	5,72 β-galactosidase units per well	0,89 β-galactosidase units per well	0,88 β-galactosidase units per well	89,4%	87,2%	84,4%	78,3%	73,35%	105 to 107 °C	94,43%	94,83%	91,92%	78,43%	70,75%	transfection efficiency [2, 3]: 0,83 β-galactosidase units per well; cytotoxicity as a percentage of survived cells (D 407 cells; [3]): 90,43%; cytotoxicity as a percentage of survived cells (D 407 cells; [4]): 80,92%; cytotoxicity as a percentage of survived cells (D 407 cells; [5]): 51,14%; cytotoxicity as a percentage of survived cells (D 407 cells; [6]): 31,39%; cytotoxicity as a percentage of survived cells (D 407 cells; [7]): 26,92%
CCCCCCCCCCCCCCOC(=O)C1=C(C)NC(C)=C(C(=O)OCCCCCCCCCCCCCC)C1c1ccc[n+](C)c1.I.[I-] [VI, 1′,4′-Dihydro-1,2′,6′-trimethyl-3′,5′-bis(tetradecyloxycarbonyl)-3,4′-bipyridinium iodide]	0,81 β-galactosidase units per well	0,82 β-galactosidase units per well	4,82 β-galactosidase units per well	2,16 β-galactosidase units per well	1,27 β-galactosidase units per well	16,56 β-galactosidase units per well	35,6 β-galactosidase units per well	1,21 β-galactosidase units per well	1,08 β-galactosidase units per well	93,25%	84,75%	78,9%	74,85%	71,05%	114 to 115 °C	94,05%	89,46%	90,38%	45,6%	7,52%	transfection efficiency [2, 3]: 0,53 β-galactosidase units per well; cytotoxicity as a percentage of survived cells (D 407 cells; [3]): 98,6%; cytotoxicity as a percentage of survived cells (D 407 cells; [4]): 94,43%; cytotoxicity as a percentage of survived cells (D 407 cells; [5]): 79,12%; cytotoxicity as a percentage of survived cells (D 407 cells; [6]): 12,13%; cytotoxicity as a percentage of survived cells (D 407 cells; [7]): 5,11%
CCCCCCCCCCCCCCCCOC(=O)C1=C(C)NC(C)=C(C(=O)OCCCCCCCCCCCCCCCC)C1c1ccc[n+](C)c1.I.[I-] [VII, 3′,5′-Bis(hexadecyloxycarbonyl)-1′,4′-dihydro-1,2′,6′-trimethyl-3,4′-bipyridinium iodide]	0,73 β-galactosidase units per well	0,39 β-galactosidase units per well	2,2 β-galactosidase units per well	0,81 β-galactosidase units per well	0,61 β-galactosidase units per well	0,82 β-galactosidase units per well	1,37 β-galactosidase units per well	0,98 β-galactosidase units per well	0,63 β-galactosidase units per well	90,6%	86,95%	83,11%	79,25%	77,6%	112 to 113 °C (dec.)	102,34%	97,03%	103,62%	99,84%	88,71%	cytotoxicity as a percentage of survived cells (D 407 cells; [3]): 95,82%; cytotoxicity as a percentage of survived cells (D 407 cells; [4]): 84,83%; cytotoxicity as a percentage of survived cells (D 407 cells; [5]): 62,61%; cytotoxicity as a percentage of survived cells (D 407 cells; [6]): 55,53%; cytotoxicity as a percentage of survived cells (D 407 cells; [7]): 51,38%
Br.CCCCCCCCCCCCCCCC[n+]1cccc(C2C(C(=O)OCCCCCCCCCCCCCC)=C(C)NC(C)=C2C(=O)OCCCCCCCCCCCCCC)c1.[Br-] [XVII, 1-Hexadecyl-1′,4′-dihydro-2′,6′-dimethyl-3′,5′-bis(tetradecyloxycarbonyl)-3,4′-bipyridinium bromide]										104,4%	97,9%	95,1%	97%	96,5%	133 to 135 °C	105,14%	85,31%	88,20%	67,45%	97,34%	transfection, result in words [1]: No signal
CCCCCCCCCCCCCCCCOC(=O)C1=C(C)NC(C)=C(C(=O)OCCCCCCCCCCCCCCCC)C1c1ccc[n+](CC(N)=O)c1.I.[I-] [XX, 1-Carbamoylmethyl-3′,5′-bis(hexadecyloxycarbonyl)-1′,4′-dihydro-2′,6′-dimethyl-3,4′-bipyridinium iodide]										88,0%	81,94%	76,4%	71,5%	66,31%	140 to 141 °C (dec.)	100,59%	110,76%	59,96%	71,98%	92,09%	transfection, result in words [1]: No signal
